How the values were obtained:
human platelet PDE-V = molecular target: T1, human platelet PDE-V (Homo sapiens, UniProt O76074); assay: cGMP-Phosphodiesterase (PDE) assay; enzymatic inhibitory test against human platelet PDE-V; format: biochemical; conditions: 0.1 μM [3H]-cGMP substrate, 30° C., 10 minutes
T1 construct: Human platelet cGMP-PDE was separated from other isozymes in human platelets; from tissue; host or cells: human platelets
Protocol: [II] Test Method: cGMP-Phosphodiesterase (PDE) Assay
Human platelet cGMP-PDE was separated from other isozymes in human platelets by a modification of the method of Thompson et. al. (see Cyclic Nucleotide Phosphodiesterase (PDE), in Methods of Enzymatic analysis, Vol 4, p127-234, 1984). Specific inhibitory activity of PDE-V was measured by following procedure. In enzyme inhibition assays, the test compounds were dissolved in DMSO and then diluted with assay buffer (50 mM Tris-HCl, 0.077 mg/ml dithiothreitol and 10 mg/ml snake venom, 1 mM EGTA, pH 8.0), at final concentrations ranging from 10^−10 to 10^−6 M. Assays were performed at 0.1 μM substrate ([^3H]-cGMP) concentration, at 30° C. for 10 minutes using enzyme dilutions which gave 10-20% hydrolysis of substrate. Each assay was initiated by addition of substrate and terminated by addition of anion exchange resin (Dowex® 1-X8, […]) followed by centrifugation for 10 minutes (3000 rpm, at 4° C.). Radioactivity of supernatant ([^3H]-GMP) was assayed by liquid scintillation counting.

| SMILES | IC50 (human platelet PDE-V) [nM] | melting point [°C] |
| --- | --- | --- |
| COc1ccc(Cn2c(=O)n([C@H]3CCN(C(=O)OC(C)(C)C)C3)c3ccc(C#N)cc32)cc1Cl [Example 2(60), 1-[(S)-1-tert-Butoxycarbonylpyrrolidin-3-yl]-3-(3-chloro-4-methoxybenzyl)-5-cyano-2,3-dihydro-1H-benzimidazol-2-one] | < 10 |  |
| COc1ccc(Cn2c(=O)n([C@H]3CC[C@H](O)CC3)c3ccc([N+](=O)[O-])cc32)cc1[N+](=O)[O-] [Example 2(109), 1-(trans-4-Hydroxycyclohexyl)-3-(4-methoxy-3-nitrobenzyl)-5-nitro-1,3-dihydro-2H-benzimidazol-2-one] | < 10 |  |
| COc1ccc(Cn2c(=O)n([C@H]3CC[C@H](O)CC3)c3ccc(C#N)cc32)cc1C#N [Example 2(81), 5-Cyano-3-(3-cyano-4-methoxybenzyl)-1-(trans-4-hydroxycyclohexyl)-2,3-dihydro-1H-benzimidazol-2-one] | < 10 | 191 to 193 |
| COc1ccc(Cn2c(=O)n(C3CCC4OC(C)(C)OC4C3)c3ccc(C#N)cc32)cc1Cl (stereo not drawn) [Example 2(95), 3-(3-Chloro-4-methoxybenzyl)-5-cyano-1-(t-3,t-4-isopropylidenedioxy-r-1-cyclohexyl)-2,3-dihydro-1H-benzimidazol-2-one] | < 10 |  |
| COc1ccc(Cn2c(=O)n(-c3ccc4[nH]cnc4c3)c3ccc(C(F)(F)F)cc32)cc1Cl [Example 2(21), 1-(1H-Benzimidazol-5-yl)-3-(3-chloro-4-methoxybenzyl)-5-trifluoromethyl-2,3-dihydro-1H-benzimidazol-2-one] | < 10 | 158 to 160 |
| COc1ccc(Cn2c(=O)n([C@H]3CC[C@H](O)CC3)c3ccc(C#N)cc32)cc1OC [Example 2(5), 5-Cyano-3-(3,4-dimethoxybenzyl)-1-(trans-4-hydroxycyclohexyl)-2,3-dihydro-1H-benzimidazol-2-one] |  | 209 to 210 |

Results, then the compound that gave them:

| IC50 (human platelet PDE-V) [nM] | melting point [°C] | SMILES |
| --- | --- | --- |
| < 10 | 154.5 to 155 | COc1ccc(Cn2c(=O)n([C@H](C)CO)c3ncc(C(F)(F)F)cc32)cc1Cl [Example 4(2), 1-(3-Chloro-4-methoxybenzyl)-3-((R)-2-hydroxy-1-methylethyl)-6-trifluoromethyl-2,3-dihydro-1H-imidazo[4,5-b]pyridin-2-one] |
| < 10 |  | COc1ccc(Cn2c(=O)n(C3CCN(C)CC3)c3ccc(C#N)cc32)cc1Cl [Example 28, 3-(3-chloro-4-methoxybenzyl)-5-cyano-1-(1-methylpiperidin-4-yl)-2,3-dihydro-1H-benzimidazole-2-one] |
| < 10 |  | COc1ccc(Cn2c(=O)n([C@H]3CC[C@H](O)CC3)c3ncc(C#N)cc32)cc1Cl [Example 33, 1-(3-chloro-4-methoxybenzyl)-6-cyano-3-(trans-4-hydroxycyclohexyl)-2,3-dihydro-1H-imidazo[4,5-b]pyridin-2-one] |
